Reference: US10426777B2, “Methods used to treat cancer” (THE TRANSLATIONAL GENOMICS RESEARCH INSTITUTE, priority 2009, dated 2019)

Key:
[1] = test system: NF-κB; assay: NF-κB activation (phosphorylation) by immunoblot; format: cell-based, Human; conditions: T98G and GBM43 cells; PPF 5 μM
Description: (§1) FIGS. 26A-26C depict that PPF sensitizes GBM cells to TMZ and radiotherapy. FIG. 26A—A clonogenic assay was used to assess T98G and GBM43 cells survival after TMZ and radiation treatment. Cells were pre-treated with 5 μM PPF for 24 hours, and then either treated with 250 μM TMZ for 24 hours or exposed to 2 Gy radiation. Graph depicts the surviving fraction in the treated cells compared to vehicle (VC) treated or non-treated (NT) cells, **p<0.01. FIG. 26B—T98G glioma cells were treated with vehicle, PPF (5 μM), TMZ (250 μM), and PPF in combination with TMZ. TMZ-induced apoptosis was assayed by immunoblot analysis of cell lysates with an antibody to cleaved PARP. Immunoblotting for α-Tubulin was included as a loading control. FIG. 26C—T98G, GBM10, and GBM43 cells were treated with PPF (5 μM), lysed, and then immunoblotted to assess the activation of AKT and NF-κB. Immunoblotting for […] is included as a loading control.
(§2) Referring now to FIGS. 26A, 26B, and 26C: Knockdown of TROY expression with shRNA decreases TMZ resistance in GBM cells in vitro (See Reference 42). […] Following combination therapy, cells were trypsinized, counted, and plated in a 6-well culture dish at densities of 100, 250, and 500 cells per well in triplicate. Cells were incubated for 12 days then fixed, stained with 0.5% crystal violet solution, and counted manually by blinded observers. […]

[2] = test system: TNFR1; assay: TNFR1 expression in glioma cells by Western blot; format: cell-based, Human; conditions: T98G, GBM10 and GBM43 cells, 5 μM PPF, 24 hours
Description: (§3) FIGS. 24A-24D illustrate that PPF treatment decreases TROY expression in GBM cells. FIG. 24A—a Western blot analysis of TROY expression in T98G cells. Cells were treated with PPF at indicated concentrations for 6 hrs, lysed, and cell lysates immunoblotted with anti-TROY antibody. Immunoblotting of α-Tubulin in cell lysates is included as a loading control. FIG. 24B—Western blot analysis of TROY expression in T98G, GBM43, and GBM10 cells. Cells were treated with PPF at indicated concentrations for 24 hrs, lysed, and cell lysates immunoblotted with anti-TROY and α-Tubulin antibodies. FIG. 24C—Western Blot analysis of TROY expression in GBM10 and GBM43 primary glioma cells. Cells were treated with 5 μM PPF, lysed at the indicated time-points, and the lysates immunoblotted with an anti-TROY antibody. Immunoblotting of β-Actin in cell lysates is included as a loading control. […]
(§4) Referring now to FIGS. 24A, 24B, 24C, and 24D: The inventors investigated if PPF could be utilized pharmacologically to decrease TROY expression in GBM cells. […] Cells were treated with increasing concentration of PPF, 1 to 20 μM, lysed, and TROY expression assessed by immunoblotting. […] Protein concentrations were determined using the BCA Assay (Pierce). […] Protein bands were detected using SuperSignal Chemiluminescent Substrate (Pierce) with a UVP BioSpectrum 500 Imaging System.

[3] = test system: T98G, GBM10, and GBM43 cells; assay: Glioma cell proliferation by automated cell counting; format: cell-based, Human; conditions: doses up to 500 μM, 0-144 hours
Description: (§5) FIG. 25A—T98G, GBM43, and GBM10 cells were incubated with increasing concentrations of PPF (0, 5, 50, and 500 μM). After 0, 48, 96 and 144 hours of treatment, cell were trypsinized and counted using an automated cell counter. FIG. 24B—GBM43, GBM10, and T98G glioma cells were treated with increasing doses of PPF (0.5, 1, 5, 10, and 20 μM) in triplicate. The Cell Titer Glo (Promega) reagent was used to measure survival. Raw values were normalized on a plate-by-plate basis such that 100% cell viability was equivalent to the mean of vehicle wells and 0% cell viability was equivalent to the mean of the MG132 positive control. The normalized data was used to assess viability of glioma cells after PPF treatment.
(§6) Referring now to FIGS. 25A and 25B: To determine if PPF influences glioma cell proliferation, the inventors treated T98G, GBM10, and GBM43 cells with increasing concentrations of PPF and evaluated cell proliferation over the course of 144 hours. Briefly, 1.25×10^5 cells were seeded (n=3) in 12-well plates in 1 mL of DMEM supplemented with 10% FBS and allowed to attach at 37° for 16 hrs. […] After 0, 48, 96 and 144 hours of treatment, the cells were trypsinized and counted using the automated cell counter. […] Subsequently, 100 μL of CellTiterGlo® reagent was added to each well and luminescence was measured using Envision Reader. […]

[4] = test system: T98G, GBM10, and GBM43 glioma cells; assay: Matrigel invasion assay; format: cell-based, Human; conditions: 5 μM PPF, 24 hours, 10% FBS
Description: (§7) FIGS. 27A and 27B depict that PPF suppresses GBM cell invasion and Rac1 activation. FIG. 27A—T98G, GBM10, and GBM43 glioma cells were treated with 5 μM PPF and invasion was assayed over 24 hours utilizing a Matrigel invasion assay, *p<0.05. FIG. 27B—T98G glioma cells were serum starved, pre-incubated with 5 μM PPF or vehicle for 1 hour, and then stimulated with 10% FBS for 2-10 mins. Cell lysates were harvested and equal concentrations of protein were assessed for Rac1 activation.
(§8) Referring now to FIGS. 27A and 27B: The inventors next examined whether PPF inhibited TROY dependent glioma cell invasion. […] Briefly, 5.0×10^5 glioma cells were seeded in 100-mm diameter culture dishes and incubated overnight at 37° C. Subsequently, cells were serum starved for 16 hours at 37° C. Cells were then harvested, re-suspended in growth factor reduced Matrigel (Becton Dickinson) (1.0×10^5 cells/50 uL), added in triplicates to collagen-coated transwell chambers, and allowed to invade through Matrigel in presence of 10% FBS and/or 5 μM PPF. After incubation for 24 hours at 37° C., non-invaded cells were scrapped off the upper side of the membrane and cells invaded to the other side of the membrane were fixed with 4% paraformaldehyde (PFA) (Affymetrix) and stained with DAPI (Invitrogen). Nuclei of invaded cells were counted in five high power fields (HPF) with a 20× objective.

[5] = test system: CNS-1 rat model; conditions: systemic PPF treatment, via modulation of microglia; cited from earlier work
[6] = test system: TROY; conditions: Reference 41; cited from earlier work
[7] = test system: Rac1; assay: Rac1 activation assay after FBS stimulation; format: cell-based, Human; conditions: T98G cells; 5 μM PPF 1 hour, then 10% FBS 2-10 mins
Description: as §7, §8

[8] = test system: AKT; assay: AKT activation (phosphorylation) by immunoblot; format: cell-based, Human; conditions: T98G and GBM43 cells; PPF 5 μM
Description: as §1, §2

[9] = test system: T98G and GBM43 cells; assay: Clonogenic survival assay with TMZ or radiation; format: cell-based, Human
Description: as §1, §2

[10] = clinical trials, cited from earlier work
[11] = test system: T98G, GBM10, and GBM43 cells; assay: CellTiterGlo glioma cell cytotoxicity / viability assay; format: cell-based, Human; conditions: all three GBM cell lines; PPF 0.5 to 20 μM; 72 hours
Description: as §5, §6

[12] = test system: cleaved PARP; assay: Apoptosis by immunoblot for cleaved PARP; format: cell-based, Human; conditions: T98G cells; PPF 5 μM, TMZ 250 μM
Description: as §1, §2

[13] = test system: T98G, GBM10, and GBM43 cells; assay: Lamellipodia formation and membrane ruffling (F-actin staining); format: cell-based, Human; conditions: 5 μM PPF 1 hour, then 10% FBS 5 min
Description: FIGS. 28A and 28B depict that PPF suppresses GBM cell membrane ruffling. FIG. 28A—GBM43 cells were preincubated with 5 μM PPF or vehicle for 1 hour prior to 10% FBS stimulation for 5 min. After FBS stimulation, cells were fixed, permeabilized, and stained for F-actin. For each experimental condition, at least 12 images were taken randomly. Arrowhead indicates membrane ruffles. FIG. 28B—Graph depicts the average lamellipodia in T98G, GBM10, and GBM43 cells in the presence or absence of 10% FBS with or without 5 μM PPF as indicated. Lamellipodia were traced using Image J software.
Referring now to FIGS. 28A and 28B: The inventors investigated lamellipodia formation and membrane ruffling. Briefly, glioma cells were plated onto 10-well glass slides pre-coated with 10 μg/ml laminin at the density of 3000 cells/well for 24 hours at 37° C. Subsequently, cells were serum starved for 16 hours. The cells were pre-incubated with 5 μM PPF or vehicle for 1 hour prior to 10% FBS stimulation for 5 min. After FBS stimulation, cells were fixed in 4% PFA, permeabilized with 0.1% Triton X-100, and incubated with Alexa Fluor® 555 Phalloidin (Invitrogen) to stain for F-actin. Slides were mounted with ProLong® reagent with DAPI and imaged using a Zeiss LSM 510 microscope. For each experimental condition, at least 12 images were randomly taken. Lamellipodia were traced using ImageJ software.

[14] = test system: TROY; assay: TROY expression in GBM cells by immunoblotting (Western blot); format: cell-based, Human
Description: FIGS. 24A-24D illustrate that PPF treatment decreases TROY expression in GBM cells. FIG. 24A—a Western blot analysis of TROY expression in T98G cells. Cells were treated with PPF at indicated concentrations for 6 hrs, lysed, and cell lysates immunoblotted with anti-TROY antibody. Immunoblotting of α-Tubulin in cell lysates is included as a loading control. FIG. 24B—Western blot analysis of TROY expression in T98G, GBM43, and GBM10 cells. Cells were treated with PPF at indicated concentrations for 24 hrs, lysed, and cell lysates immunoblotted with anti-TROY and α-Tubulin antibodies. FIG. 24C—Western Blot analysis of TROY expression in GBM10 and GBM43 primary glioma cells. Cells were treated with 5 μM PPF, lysed at the indicated time-points, and the lysates immunoblotted with an anti-TROY antibody. Immunoblotting of β-Actin in cell lysates is included as a loading control. FIG. 24D—Western Blot analysis of T98G, GBM10 and GBM43 glioma cells treated with 5 μM PPF for 24 hours. Lysates were immunoblotted with anti-TROY, anti-TNFR1, anti-EGFR, and β-Actin antibodies.
Cell Culture Conditions: Human glioma cell line T98G (ATCC) was maintained in DMEM with high glucose (Invitrogen) supplemented with 10% heat-inactivated fetal bovine serum (FBS) (Invitrogen) in a 37° C., 5% CO2 atmosphere at constant humidity. The primary glioma patient derived xenograft (PDX) lines GBM10 and GBM43 were derived from patient surgical samples and maintained as flank xenografts in immunodeficient mice. GBM10 and GBM43 flank tumor were resected, brought to single cell suspension via mechanical dissociation, and maintained in DMEM+10% FBS for in vitro experiments. In the experiments with FBS stimulation, the cells were serum starved (DMEM+0.1% Bovine Serum Albumin (BSA)) for 16 hours before stimulation with 10% FBS in DMEM.
Referring now to FIGS. 24A, 24B, 24C, and 24D: The inventors investigated if PPF could be utilized pharmacologically to decrease TROY expression in GBM cells. The long-term established cell line T98G was first utilized to test the efficacy of PPF. Cells were treated with increasing concentration of PPF, 1 to 20 μM, lysed, and TROY expression assessed by immunoblotting. Briefly, monolayers of cells were washed in phosphate-buffered saline (PBS) containing 1 mM phenylmethylsulfonylfluoride and 1 mM sodium orthovanadate and then lysed in 2×SDS sample buffer containing protease and phosphatase inhibitors. Protein concentrations were determined using the BCA Assay (Pierce). Thirty micrograms of total protein was loaded per lane and separated by SDS-PAGE. […] Protein bands were detected using SuperSignal Chemiluminescent Substrate (Pierce) with a UVP BioSpectrum 500 Imaging System.

[15] = test system: microglia; conditions: Reference 41; cited from earlier work
[16] = test system: EGFR; assay: EGFR expression in glioma cells by Western blot; format: cell-based, Human; conditions: T98G, GBM10 and GBM43 cells, 5 μM PPF, 24 hours
Description: as §3, §4

CCCn1cnc2c1c(=O)n(CCCCC(C)=O)c(=O)n2C [PPF, 3-methyl-1-(5-oxohexyl)-7-propyl-3,7-dihydro-1H-purine-2,6-dione]
NF-κB phosphorylation [1]: effectively decreased
TNFR1 expression [2]: did not affect
proliferation of glioma cells [3]: did not affect
glioma cell invasion [4]: significantly inhibited
tumor growth [5]: decreased
TROY expression in microglia [6]: decreasing
Rac1 activation [7]: inhibited
AKT phosphorylation [8]: effectively decreased
surviving fraction, PPF and 2Gy radiation compared to 2Gy radiation alone ([9]; GBM cells, 5 μM PPF 24 hours then 2 Gy): significantly decreased
surviving fraction, PPF in combination with TMZ compared to TMZ alone ([9]; T98G and GBM43, 5 μM PPF 24 hours then 250 μM TMZ 24 hours): significantly decreased
therapeutic efficacy ([10]; Alzheimer's disease and vascular dementia): therapeutic efficacy
side effect profile ([10]; Reference 39): minimal side effect profile
cell viability [11]: negligible loss of cell viability
cleaved PARP, PPF and TMZ compared to TMZ alone [12]: increase
lamellipodia formation and membrane ruffling [13]: significantly decreased
TROY expression over time ([14]; GBM10 and GBM43 cells, 5 μM PPF for varying lengths of time): decreased in a time-dependent manner
TROY expression ([14]; T98G cells, 1 μM PPF, 6 hrs): significant suppression
TROY expression ([14]; T98G cells, PPF 1 to 20 μM, 6 hrs): decreased in concentration dependent manner
TROY expression ([14]; T98G, GBM10 and GBM43 cells, 5 μM PPF, 24 hrs): effective in lowering TROY expression
migration of microglia [15]: inhibit
EGFR expression [16]: did not affect
